Among the data in US8471005B2 (Cephalon, Inc., priority 2008, dated 2013) are IC50 values, retold here.

The target of one assay is T1, JAK2 (Homo sapiens, UniProt O60674).
T1 construct: host or cells: baculovirus expression system
In words: Recombinant Human JAK2 Kinase Assay (TRF). Format: biochemical. The settings on record: read-out: JAK2 Potency. Put shortly:
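Baculovirus-expressed JAK2 (15 ng/ml) phosphorylated a biotinylated 15-mer peptide captured on Neutravidin, in 20 mM HEPES pH 7.2, 0.2 μM ATP, 1 mM MnCl2, 0.1% BSA, 2.5% DMSO final, 20 min at room temperature. Phosphoproduct detected by time-resolved fluorescence with Eu-N1-labelled PY100 antibody.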

A further assay concerns the target T2, ALK (Homo sapiens, UniProt Q9UM73).
T2 construct: host or cells: baculovirus expression system
Put plainly: ALK Kinase Assay (ELISA/TRF, PLC-γ substrate). The settings on record: read-out: ALK Potency. Type of assay: biochemical. The gist of the method:
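Read-out is time-resolved fluorescence from a Eu-N1-labeled PT66 antibody that binds phosphorylated PLC-γ, the substrate coated at 10 μg/mL in TBS. ALK at 30 ng/ml starts the reaction, which runs 15 minutes at 37° C.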
A general note: ELISA stands for enzyme-linked immunosorbent assay.

Setting [1] is: JAK2 kinase inhibition, 0.2 μM ATP.
The mark [2] stands for this setting: ALK kinase inhibition, 1 μM ATP.

Read-outs that look alike come from different tables or passages of the source.

T2 sequence (Q9UM73 19-1620): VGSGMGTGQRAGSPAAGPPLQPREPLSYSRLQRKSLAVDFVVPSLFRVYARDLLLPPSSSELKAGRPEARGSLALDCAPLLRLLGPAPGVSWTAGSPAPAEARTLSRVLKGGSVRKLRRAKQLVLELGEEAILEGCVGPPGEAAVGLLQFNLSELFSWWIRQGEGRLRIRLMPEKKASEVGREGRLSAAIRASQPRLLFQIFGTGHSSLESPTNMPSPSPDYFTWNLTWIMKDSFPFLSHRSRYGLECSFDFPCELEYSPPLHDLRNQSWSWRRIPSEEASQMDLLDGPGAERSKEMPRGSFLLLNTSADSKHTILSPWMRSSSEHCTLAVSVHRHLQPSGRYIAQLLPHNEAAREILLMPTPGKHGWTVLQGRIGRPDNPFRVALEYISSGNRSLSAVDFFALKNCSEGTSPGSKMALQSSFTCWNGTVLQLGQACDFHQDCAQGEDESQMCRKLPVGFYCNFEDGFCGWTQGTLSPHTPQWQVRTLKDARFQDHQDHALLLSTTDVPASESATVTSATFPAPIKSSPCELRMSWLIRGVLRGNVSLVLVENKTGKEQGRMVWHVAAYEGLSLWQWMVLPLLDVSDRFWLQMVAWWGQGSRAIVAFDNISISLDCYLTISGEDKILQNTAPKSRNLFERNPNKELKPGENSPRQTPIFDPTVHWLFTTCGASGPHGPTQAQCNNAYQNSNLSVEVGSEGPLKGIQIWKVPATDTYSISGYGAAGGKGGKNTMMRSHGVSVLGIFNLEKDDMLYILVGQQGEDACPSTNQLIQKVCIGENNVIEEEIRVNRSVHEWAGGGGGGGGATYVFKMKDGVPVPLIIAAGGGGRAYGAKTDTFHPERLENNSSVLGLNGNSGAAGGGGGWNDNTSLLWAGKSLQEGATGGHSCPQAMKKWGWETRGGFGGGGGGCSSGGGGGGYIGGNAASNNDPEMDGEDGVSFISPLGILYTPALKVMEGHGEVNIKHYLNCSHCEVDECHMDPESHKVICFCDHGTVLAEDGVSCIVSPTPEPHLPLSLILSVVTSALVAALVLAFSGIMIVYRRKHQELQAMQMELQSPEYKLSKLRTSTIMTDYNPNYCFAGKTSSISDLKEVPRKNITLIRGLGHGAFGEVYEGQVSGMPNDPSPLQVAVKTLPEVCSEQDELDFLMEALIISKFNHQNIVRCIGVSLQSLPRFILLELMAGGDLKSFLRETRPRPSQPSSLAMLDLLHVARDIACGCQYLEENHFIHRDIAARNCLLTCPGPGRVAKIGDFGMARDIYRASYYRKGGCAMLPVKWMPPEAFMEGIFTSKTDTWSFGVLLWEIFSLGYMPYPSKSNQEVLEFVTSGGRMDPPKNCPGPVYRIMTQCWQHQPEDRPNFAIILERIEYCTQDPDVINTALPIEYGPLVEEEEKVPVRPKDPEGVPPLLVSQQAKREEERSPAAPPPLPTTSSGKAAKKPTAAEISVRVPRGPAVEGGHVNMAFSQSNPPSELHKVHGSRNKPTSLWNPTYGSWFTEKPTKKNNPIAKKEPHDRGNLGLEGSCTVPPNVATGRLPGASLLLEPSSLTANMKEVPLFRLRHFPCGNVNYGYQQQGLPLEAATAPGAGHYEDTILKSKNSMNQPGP
T1 sequence (O60674 whole entry): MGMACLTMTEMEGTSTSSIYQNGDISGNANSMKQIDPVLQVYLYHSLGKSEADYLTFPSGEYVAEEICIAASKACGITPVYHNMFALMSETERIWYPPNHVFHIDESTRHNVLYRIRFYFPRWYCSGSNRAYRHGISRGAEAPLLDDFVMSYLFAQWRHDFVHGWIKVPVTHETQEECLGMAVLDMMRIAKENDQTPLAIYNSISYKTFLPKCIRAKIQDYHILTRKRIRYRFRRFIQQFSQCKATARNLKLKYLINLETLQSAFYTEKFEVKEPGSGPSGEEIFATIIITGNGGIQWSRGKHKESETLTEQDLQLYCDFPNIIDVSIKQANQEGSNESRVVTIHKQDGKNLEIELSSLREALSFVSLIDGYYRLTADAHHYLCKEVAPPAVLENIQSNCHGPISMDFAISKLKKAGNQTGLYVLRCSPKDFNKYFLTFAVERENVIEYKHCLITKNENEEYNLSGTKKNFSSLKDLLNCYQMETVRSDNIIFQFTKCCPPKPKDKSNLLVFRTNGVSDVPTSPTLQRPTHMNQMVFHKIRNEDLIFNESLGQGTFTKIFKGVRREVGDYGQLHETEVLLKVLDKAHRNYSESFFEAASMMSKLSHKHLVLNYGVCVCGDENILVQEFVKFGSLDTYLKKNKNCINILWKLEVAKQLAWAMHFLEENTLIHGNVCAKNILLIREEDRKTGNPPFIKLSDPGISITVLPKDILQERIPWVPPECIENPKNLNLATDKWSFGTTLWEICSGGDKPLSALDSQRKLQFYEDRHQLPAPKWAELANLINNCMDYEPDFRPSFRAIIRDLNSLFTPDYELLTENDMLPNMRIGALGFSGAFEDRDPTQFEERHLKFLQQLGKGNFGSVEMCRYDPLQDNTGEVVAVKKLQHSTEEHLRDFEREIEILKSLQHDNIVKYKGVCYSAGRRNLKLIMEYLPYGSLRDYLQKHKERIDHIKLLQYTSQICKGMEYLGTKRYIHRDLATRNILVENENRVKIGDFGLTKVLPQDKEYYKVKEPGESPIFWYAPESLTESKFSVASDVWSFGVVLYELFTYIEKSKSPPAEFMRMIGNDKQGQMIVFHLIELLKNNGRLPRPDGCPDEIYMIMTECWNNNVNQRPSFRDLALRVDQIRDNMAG

Turning to `COc1cc(N2CCC3(CC2)OCCO3)ccc1Nc1ncc2ccc(-c3ccccc3OC)n2n1` [Example 482, [4-(1,4-Dioxa-8-aza-spiro[4.5]dec-8-yl)-2-methoxy-phenyl]-[7-(2-methoxy-phenyl)-pyrrolo[2,1-f][1,2,4]triazin-2-yl]-amine], the IC50 on JAK2 (setting [1]) and on ALK (setting [2]) was 100 to 1000 nM each time.
With `COc1ccc(Nc2ncc3ccc(-c4cccc(Cl)c4)n3n2)cc1OC` [Example 152, [7-(3-Chloro-phenyl)-pyrrolo[2,1-f][1,2,4]triazin-2-yl]-(3,4-dimethoxy-phenyl)-amine], the figures for the IC50 at JAK2 (JAK2 Kinase Inhibition) and at ALK (ALK Kinase Inhibition) were below 100 nM and 1000 to 10000 nM, respectively.
For `CC(C)(C)NS(=O)(=O)c1cccc(-c2ccc3cnc(Nc4ccc(N5CCOCC5)cc4)nn23)c1` [Example 561, N-tert-Butyl-3-[2-(4-morpholin-4-yl-phenylamino)-pyrrolo[2,1-f][1,2,4]triazin-7-yl]-benzenesulfonamide], the IC50 on JAK2 (setting [1]) was below 100 nM; on ALK (setting [2]) it was 100 to 1000 nM.
Taken in the same sequence, the figures for `CN(c1ccccc1-c1ccc2cnc(Nc3ccn(CCN4CCOCC4)n3)nn12)S(C)(=O)=O` [Example 1186, N-Methyl-N-(2-{2-[1-(2-morpholin-4-yl-ethyl)-1H-pyrazol-3-ylamino]-pyrrolo[2,1-f][1,2,4]triazin-7-yl}-phenyl)-methanesulfonamide] were below 100 nM and 100 to 1000 nM.
Taken in the same sequence, the figures for `CNC(=O)CN1CCC(c2ccc(Nc3ncc4ccc(-c5ccccc5OC)n4n3)c(OC)c2)CC1` [Example 867, 2-(4-{3-Methoxy-4-[7-(2-methoxy-phenyl)-pyrrolo[2,1-f][1,2,4]triazin-2-ylamino]-phenyl}-piperidin-1-yl)-N-methyl-acetamide] were 100 to 1000 nM and below 100 nM.
In the case of `COc1cc(-c2ccc3cnc(Nc4ccc(C5CN(CC(N)=O)C5)cc4)nn23)c(OC)nn1` [Example 581, 2-(3-{4-[7-(3,6-Dimethoxy-pyridazin-4-yl)-pyrrolo[2,1-f][1,2,4]triazin-2-ylamino]-phenyl}-azetidin-1-yl)-acetamide], the IC50 is below 100 nM on JAK2 (setting [1]) and 100 to 1000 nM at ALK (setting [2]).
As to `CN1CCN(c2ccc(Nc3ncc4ccc(-c5ccccc5OCC(=O)N(C)C)n4n3)cc2F)CC1` [Example 1404, 2-(2-{2-[3-Fluoro-4-(4-methyl-piperazin-1-yl)-phenylamino]-pyrrolo[2,1-f][1,2,4]triazin-7-yl}-phenoxy)-N,N-dimethyl-acetamide], the IC50 at JAK2 (JAK2 Kinase Inhibition) was below 100 nM; at ALK (ALK Kinase Inhibition) it was 100 to 1000 nM.
Regarding `CC(=O)Nc1cccc(Nc2ncc3ccc(-c4cccn4CCC#N)n3n2)c1` [Example 1294, N-(3-{7-[1-(2-Cyano-ethyl)-1H-pyrrol-2-yl]-pyrrolo[2,1-f][1,2,4]triazin-2-ylamino}-phenyl)-acetamide], the results for the IC50 at JAK2 (setting [1]) and on ALK (setting [2]) were below 100 nM and 1000 to 10000 nM, respectively.
In the case of `CN1CCN(c2ccc(Nc3ncc4ccc(-c5ccccc5CO)n4n3)cc2)CC1` [Example 1504, (2-{2-[4-(4-Methyl-piperazin-1-yl)-phenylamino]-pyrrolo[2,1-f][1,2,4]triazin-7-yl}-phenyl)-methanol], the IC50 is below 100 nM at JAK2 (JAK2 Kinase Inhibition) and 100 to 1000 nM on ALK (ALK Kinase Inhibition).
In the same order, the values of `CN(c1ccccc1-c1ccc2cnc(Nc3ccc(N4CCC(N5CCOCC5)CC4)cc3)nn12)S(C)(=O)=O` [Example 1456, N-Methyl-N-(2-{2-[4-(4-morpholin-4-yl-piperidin-1-yl)-phenylamino]-pyrrolo[2,1-f][1,2,4]triazin-7-yl}-phenyl)-methanesulfonamide] are below 100 nM and below 100 nM.
On to `CN1CCN(Cc2nc3ccc(Nc4ncc5ccc(-c6cccc(S(=O)(=O)NC(C)(C)C)c6)n5n4)cc3[nH]2)CC1` [Example 1524, N-tert-Butyl-3-{2-[2-(4-methyl-piperazin-1-ylmethyl)-3H-benzimidazol-5-ylamino]-pyrrolo[2,1-f][1,2,4]triazin-7-yl}-benzenesulfonamide], for which the IC50 was below 100 nM on JAK2 (JAK2 Kinase Inhibition) and 100 to 1000 nM at ALK (ALK Kinase Inhibition).
As for `Clc1cccc(Nc2ncc3cc4ccccc4n3n2)c1` [Example 271, (3-Chloro-phenyl)-[1,2,4]triazino[1,6-a]indol-2-yl-amine], the IC50 on JAK2 (JAK2 Kinase Inhibition) was 100 to 1000 nM; on ALK (ALK Kinase Inhibition), above 10000 nM.
As to `COc1cc2c(cc1Nc1ncc3ccc(-c4ccccc4OC)n3n1)CN(C)C2` [Example 816, (6-Methoxy-2-methyl-2,3-dihydro-1H-isoindol-5-yl)-[7-(2-methoxy-phenyl)-pyrrolo[2,1-f][1,2,4]triazin-2-yl]-amine], the IC50 on JAK2 (setting [1]) and at ALK (setting [2]) was below 100 nM in each case.
With `CC(=O)Nc1cccc(Nc2ncc3ccc(-c4cccc(S(=O)(=O)NC(C)(C)C)c4)n3n2)c1` [Example 1368, N-{3-[7-(3-tert-Butylsulfamoyl-phenyl)-pyrrolo[2,1-f][1,2,4]triazin-2-ylamino]-phenyl}-acetamide], the IC50 on JAK2 (JAK2 Kinase Inhibition) was below 100 nM; on ALK (ALK Kinase Inhibition) it was 100 to 1000 nM.
`COc1cc2c(cc1Nc1ncc3ccc(-c4ccccc4N(C)S(C)(=O)=O)n3n1)CN(C(C)C)C2` [Example 876, N-{2-[2-(2-Isopropyl-6-methoxy-2,3-dihydro-1H-isoindol-5-ylamino)-pyrrolo[2,1-f][1,2,4]triazin-7-yl]-phenyl}-N-methyl-methanesulfonamide]: the IC50 on JAK2 (setting [1]) is 100 to 1000 nM; on ALK (setting [2]), below 100 nM.
In the same order, the values of `COc1cc(N2CCC(N3CCOCC3)CC2)ccc1Nc1ncc2ccc(-c3c(OC)cccc3OC)n2n1` [Example 542, [7-(2,6-Dimethoxy-phenyl)-pyrrolo[2,1-f][1,2,4]triazin-2-yl]-[2-methoxy-4-(4-morpholin-4-yl-piperidin-1-yl)-phenyl]-amine] are 1000 to 10000 nM and 100 to 1000 nM.
For `CC(=O)N1CCc2ccc(Nc3ncc4ccc(-c5cccc(S(=O)(=O)NC(C)(C)C)c5)n4n3)cc21` [Example 1372, 3-[2-(1-Acetyl-2,3-dihydro-1H-indol-6-ylamino)-pyrrolo[2,1-f][1,2,4]triazin-7-yl]-N-tert-butyl-benzenesulfonamide], the IC50 at JAK2 (JAK2 Kinase Inhibition) was below 100 nM; at ALK (ALK Kinase Inhibition), above 10000 nM.
Turning to `COc1cc(C2CCN(C(=O)CN(C)C)CC2)ccc1Nc1ncc2ccc(-c3ccccc3N(C)S(C)(=O)=O)n2n1` [Example 813, N-[2-(2-{4-[1-(2-Dimethylamino-acetyl)-piperidin-4-yl]-2-methoxy-phenylamino}-pyrrolo[2,1-f][1,2,4]triazin-7-yl)-phenyl]-N-methyl-methanesulfonamide], the figures for the IC50 on JAK2 (setting [1]) and on ALK (setting [2]) were 1000 to 10000 nM and below 100 nM, respectively.
In the case of `CS(=O)(=O)c1ccc(-c2ccc3cnc(Nc4ccc(N5CCOCC5)c(F)c4)nn23)cc1` [Example 189, (3-Fluoro-4-morpholin-4-yl-phenyl)-[7-(4-methanesulfonyl-phenyl)-pyrrolo[2,1-f][1,2,4]triazin-2-yl]-amine], the results for the IC50 on JAK2 (JAK2 Kinase Inhibition) and at ALK (ALK Kinase Inhibition) were below 100 nM and above 10000 nM, respectively.
With `COc1ccccc1-c1ccc2cnc(Nc3cc4c(cc3F)CCC(=O)N4)nn12` [Example 922, 6-Fluoro-7-[7-(2-methoxy-phenyl)-pyrrolo[2,1-f][1,2,4]triazin-2-ylamino]-3,4-dihydro-1H-quinolin-2-one], the IC50 at JAK2 (setting [1]) was below 100 nM; on ALK (setting [2]), 1000 to 10000 nM.
